Converted amounts (≈) assume the structure as drawn. Where two headings read alike, the source gives them in different places.
How the values were obtained:
[1] = system: Staphylococcus aureus (ATCC 25923, sensitive Gram-positive strain); test: Determination of the antibacterial activity: MIC in liquid Mueller-Hinton medium (intrinsic antibacterial activity); assay type: cell-based
Experimental: (§1) The two strains used are Staphylococcus aureus (ATCC 25923, sensitive Gram-positive strain) denoted S, and S. aureus ITS-1199 (without efflux), as well as its derivative S. aureus ITS-1199B (Kaatz, G. W., Seo, S. M., Antimicrob. Agents Chemother., 1995, 39, 2650-2655) having a resistance to the fluoroquinolones due to the overexpression of the efflux pump NorA and denoted R NorA. The bacteria are cultured at 37° C. in Mueller-Hinton (MH, Bio Rad) or Luria-Bertani (LB, Difco) Medium.
The experiments described hereafter are carried out following the recommendations of the Comité de l'Antibiogramme de la Société Française de Microbiologic (http://www.sfm.asso.fr/nouv/general.php See also Courvalin, P., Goldstein, F., Philippon, A., Sirot J. L'antibiogramme, 1985, M.P.C.-Videom editor). The antibacterial activity of the molecules was determined in liquid medium using a Biomek 2000 robot (Beckman) and micro-titration plates. The final volume in each well is 200 μl. A maximum volume of 5 μl of a solution of the molecule in DMSO is added to each well containing 10^6 CFU/ml (Colony Forming Units) of bacteria in MH medium. The final concentration of the molecule to be tested must be 100 or 128 μg/ml. […] Ampicillin is used as a positive control and the same volume of DMSO as that used to introduce the molecule (generally 2 to 5 μl) as a negative control.
The experiments are repeated three times.

[2] = system: KB (human mouth carcinoma); test: In vitro cytotoxicity on KB cells; assay type: cell-based
Experimental: (§2) The in vitro cytotoxicity results, measured at a concentration of 10^−5 M, are described below. The cytotoxicity was measured on 5 cell lines—KB (human mouth carcinoma), MCF7 (breast carcinoma) and MCF7R (resistant strain), Vero (monkey kidney) and HCT116 (human colon tumour).

[3] = In vitro cytotoxicity on Vero cells; assay type: cell-based; details: monkey
Experimental: as §2

[4] = In vitro cytotoxicity on HCT116 cells; assay type: cell-based; details: human, concentration of 10^−5 M, read-out: Average cytotoxicity (% inhibition), HCT116 cells
Experimental: as §2

[5] = In vitro cytotoxicity on MCF7 cells; assay type: cell-based; details: human, MCF7 cells (breast carcinoma); concentration of 10^−5 M; read-out: Average cytotoxicity (% inhibition), MCF7 cells
Experimental: as §2

in vitro = assay type: cell-based; details: human
Experimental: as §2

[6] = system: S. aureus ITS-1199B (overexpression of the efflux pump NorA); assay type: cell-based, Staphylococcus aureus; details: resistant strain R NorA; for MIC (μg/ml) of compound in the presence of ciprofloxacin at 4 μg/ml (c/4): ciprofloxacin 4 μg/ml (c/4); for MIC (μg/ml) of compound in the presence of ciprofloxacin at 8 μg/ml (c/2): ciprofloxacin 8 μg/ml (c/2)
Experimental: as §1
The experiences are carried out as above, but using the resistant strain, and looking at the effect of the mixture of the molecule to be tested and the antibiotic to which the bacterium is resistant. Thus, the method of a series of dilutions in Mueller-Hinton medium is used, also starting from a molecule concentration of 100 or 128 μg/ml.

[7] = ATCC25923, 18 h, read-out: MIC / Antibacterial Activity (AA)
[8] = Vero cells (monkey kidney), concentration of 10^−5 M, read-out: Average cytotoxicity (% inhibition), Vero cells
[9] = HCT116 cells (human colon tumour)
[10] = ATCC25923, compound alone, lowest concentration allowing no growth after 18 hours at 37° C., 10^6 CFU/ml, read-out: MIC / Antibacterial Activity (AA)

Row | SMILES | Average cytotoxicity (% inhibition), KB cells ([2]; concentration of 10^−5 M) | cytotoxicity [3, 8] | cytotoxicity [4, 9] | MIC (μg/ml) of compound in the presence of ciprofloxacin at 4 μg/ml (c/4) [6] | other results
1 | CC(C)(C)OC(=O)NCC(N)c1c[nH]c2ccc(Br)cc12 (stereo not drawn) [(25), 1-amino-2-[N′-(tert-butoxycarbonyl)amino]-1-(5′-bromo-3′-indolyl) ethane] | – | – | – | – | MIC [1, 7]: 25 µg/mL (≈ 70.6 µM)
2 | CC(c1c[nH]c2ccc(Br)cc12)/[N+]([O-])=C\c1ccccc1 (stereo not drawn) [(43)] | – | – | – | – | MIC [1, 7]: 100 µg/mL (≈ 291 µM)
3 | CC(C)(C)OC(=O)NCC(NO)c1c[nH]c2cc(Br)ccc12 (stereo not drawn) [(22)] | 0% | 22% | 37% | – | MIC [1, 7]: 50 µg/mL (≈ 135 µM)
4 | COc1ccc2[nH]cc(C(CNC(=O)OC(C)(C)C)N(O)Cc3ccccc3)c2c1 (stereo not drawn) [Compound (7)] | 15.6% | 8% | 10% | – | cytotoxicity [5]: 9.7%; cytotoxicity (in vitro): 10.1%
5 | CC(C)(C)OC(=O)NCC(NC(=O)OC(C)(C)C)c1c[nH]c2cc(Br)ccc12 (stereo not drawn) [(36)] | – | – | – | 8 µg/mL | –
6 | Cl.Cl.NCC(NO)c1c[nH]c2cc(Br)ccc12 (stereo not drawn) [(33)] | 14% | – | – | – | MIC [1, 10]: 6 µg/mL; cytotoxicity ([3]; concentration of 10^−5 M, read-out: Average cytotoxicity (% inhibition), Vero cells): 31%; cytotoxicity [4]: 37%
7 | COc1ccc(CN(O)C(C)c2c[nH]c3ccc(Br)cc23)cc1 (stereo not drawn) [Compound (3)] | – | – | – | – | MIC [1, 7]: 100 µg/mL (≈ 266 µM)
8 | COc1ccc2[nH]cc(C(N)CNC(=O)OC(C)(C)C)c2c1 (stereo not drawn) [(24), 1-amino-[2-N′-(tert-butoxycarbonyl)amino]-1-(5′-methoxy-3′-indolyl) ethane] | 2% | 12% | 13% | – | MIC ([1]; ATCC25923): ≤ 10 µg/mL; MIC (μg/ml) of compound in the presence of ciprofloxacin at 8 μg/ml (c/2) [6]: 4 µg/mL
9 | COc1ccc(/C=[N+](\[O-])C(CNC(=O)OC(C)(C)C)c2c[nH]c3ccc(Br)cc23)cc1 (stereo not drawn) [(20)] | – | – | – | 3 µg/mL | MIC (μg/ml) of compound in the presence of ciprofloxacin at 8 μg/ml (c/2) [6]: <3 µg/mL
10 | CC(c1c[nH]c2ccc(Br)cc12)N(O)Cc1ccccc1 (stereo not drawn) [Compound (1)] | 50% | 36% | 28% | – | MIC [1, 10]: 25 µg/mL (≈ 72.4 µM)
11 | CC(C)CC(c1c[nH]c2ccccc12)N(O)C(=O)OC(C)(C)C (stereo not drawn) [Compound (47)] | – | – | – | 32 µg/mL | MIC [1, 10]: 64 µg/mL (≈ 201 µM)
12 | CC(C)(C)OC(=O)NCC(c1c[nH]c2ccccc12)N(O)C(=O)OC(C)(C)C (stereo not drawn) [Compound (11)] | 14% | 15% | 22% | – | –
13 | COc1ccc(CN(O)C(CNC(=O)OC(C)(C)C)c2c[nH]c3ccc(Br)cc23)c(OC)c1 (stereo not drawn) [Compound (8)] | – | – | – | 8 µg/mL | MIC (μg/ml) of compound in the presence of ciprofloxacin at 8 μg/ml (c/2) [6]: 8 µg/mL
14 | CC(C)(C)OC(=O)NCC(NO)c1c[nH]c2ccc(Br)cc12 (stereo not drawn) [(21), 1-N-(hydroxy)amino-2-[N′-(tert-butoxycarbonyl)amino]-1-(5′-bromo-3′-indolyl) ethane] | 0% | 11% | 28% | – | MIC [1, 7]: 50 µg/mL (≈ 135 µM)
15 | COc1cc(CN(O)C(CNC(=O)OC(C)(C)C)c2c[nH]c3ccc(Br)cc23)cc(OC)c1 (stereo not drawn) [(10)] | – | – | – | 8 µg/mL | –
16 | CC(C)(C)OC(=O)NCC(c1c[nH]c2cc(Br)ccc12)N(O)Cc1ccccc1 (stereo not drawn) [Compound (5)] | – | – | – | 2 µg/mL | MIC [1, 10]: 6 µg/mL (≈ 13 µM)
17 | COc1ccc2c(C(N)CN)c[nH]c2c1 (stereo not drawn) [(31)] | – | – | – | – | MIC [1, 10]: 64 µg/mL (≈ 312 µM); Average cytotoxicity (% inhibition), KB cells ([2]; human): 41%; cytotoxicity [3]: 27%
18 | CC(C)(C)OC(=O)NCC(N)c1c[nH]c2ccccc12 (stereo not drawn) [(23)] | 2% | 11% | 5% | – | MIC (μg/ml) of compound in the presence of ciprofloxacin at 8 μg/ml (c/2) [6]: 4 µg/mL
19 | CC(c1c[nH]c2ccccc12)N(O)Cc1ccccc1 (stereo not drawn) [(37)] | – | – | – | >8 µg/mL | MIC (μg/ml) of compound in the presence of ciprofloxacin at 8 μg/ml (c/2) [6]: >8 µg/mL
